Reference: patent publication US20230357239A1, “PYRIDO[2,3-D]PYRIMIDIN-4-AMINES AS SOS1 INHIBITORS” (Bayer Aktiengesellschaft, priority 2020, published 2023)

Molecular target: human SOS1 (SOS1) with human K-RasG12C (Homo sapiens (Human), UniProt Q07889)
Assay: hK-RasG12C interaction assay with hSOS1 (HTRF)
Assay type: binding
Conditions: GST-hK-RasG12C and His-hSOS1, 60 min incubation at 20° C, mean, read-out: K-RasG12C - SOS interaction assay IC50 - [mol/l] (mean)
Protocol: Biochemical Assay: hK-RasG12C Interaction Assay with hSOS1
This assay quantifies the equilibrium interaction of human SOS1 (SOS1) with human K-Ras^G12C (K-RasG12C). Detection of the interaction is achieved by measuring homogenous time-resolved fluorescence resonance energy transfer (HTRF) from antiGST-Europium (FRET donor) bound to GST-K-RasG12C to anti-6His-XL665 bound to His-tagged hSOS1 (FRET-acceptor).
The assay buffer containes 5 mM HEPES pH 7.4 (Applichem), 150 mM NaCl (Sigma), 10 mM EDTA (Promega), 1 mM DTT (Thermofisher), 0.05% BSA Fraction V, pH 7.0, (ICN Biomedicals), 0.0025% (v/v) Igepal (Sigma) and 100 mM KF (FLUKA).
Concentrations of protein batches used are optimized to be within the linear range of the HTRF signal. A Ras working solution is prepared in assay buffer containing typically 10 nM GST-hK-RasG12C and 2 nM antiGST-Eu(K) (Cisbio, France). A SOS1 working solution is prepared in assay buffer containing typically 20 nM His-hSOS1 and 10 nM anti-6His-XL665 (Cisbio, France). An inhibitor control solution is prepared in assay buffer containing 10 nM anti-6His-XL665 without SOS1.
Fifty nl of a 100-fold concentrated solution of the test compound in DMSO are transferred into a black microtiter test plate (384 or 1536, Greiner Bio-One, Germany).
For this, either a Hummingbird liquid handler (Digilab, MA, USA) or an Echo acoustic system (Labcyte, CA, USA) is used.
All steps of the assay are performed at 20° C. A volume of 2.5 μl of the Ras working solution is added to all wells of the test plate using a Multidrop dispenser (Thermo Labsystems). After 2 min preincubation, 2.5 μl of the SOS1 working solution are added to all wells except for those wells at the side of the test plate that are subsequently filled with 2.5 μl of the inhibitor control solution. After 60 min incubation the fluorescence is measured with a Pherastar (BMG, Germany) using the HTRF module (excitation 337 nm, emission 1: 620 nm, emission 2: 665 nm).
The ratiometric data (emission 2 divided by emission 1) are normalized using the controls (DMSO=0% inhibition, inhibition control wells with inhibitor control solution=100% inhibition). […] IC50 values are calculated by 4-Parameter fitting using a commercial software package (Genedata Screener, Switzerland).

Sequence of human SOS1 (SOS1) with human K-RasG12C (Q07889 564-1049): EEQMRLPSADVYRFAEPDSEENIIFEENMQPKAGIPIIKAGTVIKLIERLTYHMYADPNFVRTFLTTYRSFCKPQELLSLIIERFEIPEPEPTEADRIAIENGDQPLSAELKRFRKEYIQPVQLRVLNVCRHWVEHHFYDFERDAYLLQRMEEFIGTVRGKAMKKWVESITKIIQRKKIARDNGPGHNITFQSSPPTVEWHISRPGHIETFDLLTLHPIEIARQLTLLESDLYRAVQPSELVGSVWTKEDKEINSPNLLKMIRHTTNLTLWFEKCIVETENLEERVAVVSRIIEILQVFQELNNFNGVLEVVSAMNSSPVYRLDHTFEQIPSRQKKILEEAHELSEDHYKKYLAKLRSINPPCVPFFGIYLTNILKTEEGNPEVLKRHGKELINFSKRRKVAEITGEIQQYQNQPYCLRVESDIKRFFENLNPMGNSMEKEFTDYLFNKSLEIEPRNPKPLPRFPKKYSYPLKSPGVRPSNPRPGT

| Structure (SMILES) | IC50 |
| --- | --- |
| CC(=O)N1C[C@@H]2C[C@H]1CN2c1cnc2nc(C)nc(N[C@H](C)c3cccc(C(F)(F)C(C)(C)O)c3F)c2c1 [Example 50, 1-{(1 S,4S)-5-[4-({(1R)-1-[3-(1,1-difluoro-2-hydroxy-2-methylpropyl)-2-fluorophenyl]ethyl}amino)-2-methylpyrido[2,3-d]pyrimidin-6-yl]-2,5-diazabicyclo[2.2.1]heptan-2-yl}ethan-1-one] | 2.93 nM |
| CC(=O)N1C[C@H]2C[C@@H]1CN2c1cnc2nc(C)nc(N[C@H](C)c3cccc(C(F)(F)C(C)(C)O)c3F)c2c1 [Example 51, 1-{(1 R,4R)-5-[4-({(1R)-1-[3-(1,1-difluoro-2-hydroxy-2-methylpropyl)-2-fluorophenyl]ethyl}amino)-2-methylpyrido[2,3-d]pyrimidin-6-yl]-2,5-diazabicyclo[2.2.1]heptan-2-yl}ethan-1-one] | 9.79 nM |
| Cc1nc(N[C@H](C)c2cccc(C(F)(F)C(C)(C)O)c2F)c2cc(N3CCN(C)CC3)cnc2n1 [Example 52, 1,1-difluoro-1-{2-fluoro-3-[(1R)-1-{[2-methyl-6-(4-methylpiperazin-1-yl)pyrido[2,3-d]pyrimidin-4-yl]amino}ethyl]phenyl}-2-methylpropan-2-ol] | 4.48 nM |
| CC(=O)N1CCN(c2cnc3nc(C)nc(N[C@H](C)c4cccc(C(F)(F)C(C)(C)O)c4F)c3c2)CC1 [Example 53, 1-{4-[4-({(1R)-1-[3-(1,1-difluoro-2-hydroxy-2-methylpropyl)-2-fluorophenyl]ethyl}amino)-2-methylpyrido[2,3-d]pyrimidin-6-yl]piperazin-1-yl}ethan-1-one] | 3.34 nM |
| CC(=O)N1CC2(C1)CN(c1cnc3nc(C)nc(N[C@H](C)c4cccc(C(F)(F)C(C)(C)O)c4F)c3c1)C2 [Example 54, 1-{6-[4-({(1R)-1-[3-(1,1-difluoro-2-hydroxy-2-methylpropyl)-2-fluorophenyl]ethyl}amino)-2-methylpyrido[2,3-d]pyrimidin-6-yl]-2,6-diazaspiro[3.3]heptan-2-yl}ethan-1-one] | 3.52 nM |
| CC(=O)N[C@@H]1CCN(c2cnc3nc(C)nc(N[C@H](C)c4cccc(C(F)(F)C(C)(C)O)c4F)c3c2)C1 [Example 55, N-{(3R)-1-[4-({(1R)-1-[3-(1,1-difluoro-2-hydroxy-2-methylpropyl)-2-fluorophenyl]ethyl}amino)-2-methylpyrido[2,3-d]pyrimidin-6-yl]pyrrolidin-3-yl}acetamide] | 4.46 nM |
| CC(=O)N1CC=C(c2cc3c(N[C@H](C)c4cccc(C(F)F)c4F)nc(C)nc3nc2C)CC1 [Example 56, 1-{4-[4-({(1R)-1-[3-(difluoromethyl)-2-fluorophenyl]ethyl}amino)-2,7-dimethylpyrido[2,3-d]pyrimidin-6-yl]-3,6-dihydropyridin-1(2H)-yl}ethan-1-one] | 14.1 nM |
| CC(=O)N1CCC(c2cc3c(N[C@H](C)c4cccc(C(F)F)c4F)nc(C)nc3nc2C)CC1 [Example 57, 1-{4-[4-({(1R)-1-[3-(difluoromethyl)-2-fluorophenyl]ethyl}amino)-2,7-dimethylpyrido[2,3-d]pyrimidin-6-yl]piperidin-1-yl}ethan-1-one] | 9.81 nM |
| Cc1nc(N[C@H](C)c2cccc(C(F)(F)F)c2C)c2cc(N3CCCS3(=O)=O)c(C)nc2n1 [Example 58, 2-[2,7-dimethyl-4-({(1R)-1-[2-methyl-3-(trifluoromethyl)phenyl]ethyl}amino)pyrido[2,3-d]pyrimidin-6-yl]-1 lambda^6,2-thiazolidine-1,1-dione] | 15.9 nM |
| Cc1nc(N[C@H](C)c2cccc(C(F)(F)C(C)(C)O)c2F)c2cc(N3CCCS3(=O)=O)c(C)nc2n1 [Example 59, 2-[4-({(1R)-1-[3-(1,1-difluoro-2-hydroxy-2-methylpropyl)-2-fluorophenyl]ethyl}amino)-2,7-dimethylpyrido[2,3-d]pyrimidin-6-yl]-1 lambda^6,2-thiazolidine-1,1-dione] | 7.23 nM |
| CC(=O)N1CC2(C1)CN(c1cc3c(N[C@H](C)c4cccc(C(F)(F)C(C)(C)O)c4F)nc(C)nc3nc1C)C2 [Example 60, 1-{6-[4-({(1R)-1-[3-(1,1-difluoro-2-hydroxy-2-methylpropyl)-2-fluorophenyl]ethyl}amino)-2,7-dimethylpyrido[2,3-d]pyrimidin-6-yl]-2,6-diazaspiro[3.3]heptan-2-yl}ethan-1-one] | 3410 nM |
| CC(=O)N1CCN(c2cnc3nc(C)nc(N[C@H](C)c4cccc(C(F)(F)F)c4C)c3c2)C(=O)C1 [Example 61, 4-acetyl-1-[2-methyl-4-({(1R)-1-[2-methyl-3-(trifluoromethyl)phenyl]ethyl}amino)pyrido[2,3-d]pyrimidin-6-yl]piperazin-2-one] | 2.53 nM |
| CC(=O)N1CCC(c2cc3c(N[C@H](C)c4cccc(C(F)(F)C(C)(C)O)c4F)nc(C)nc3nc2C)=C(C)C1 [Example 62, 1-{4-[4-({(1R)-1-[3-(1,1-difluoro-2-hydroxy-2-methylpropyl)-2-fluorophenyl]ethyl}amino)-2,7-dimethylpyrido[2,3-d]pyrimidin-6-yl]-5-methyl-3,6-dihydropyridin-1(2H)-yl}ethan-1-one] | 14.5 nM |
| CC(=O)N1CC2(C1)CN(c1cc3c(N[C@H](C)c4cccc(C(F)(F)F)c4C)nc(C)nc3nc1C)C2 [Example 63, 1-{6-[2,7-dimethyl-4-({(1R)-1-[2-methyl-3-(trifluoromethyl)phenyl]ethyl}amino)pyrido[2,3-d]pyrimidin-6-yl]-2,6-diazaspiro[3.3]heptan-2-yl}ethan-1-one] | 8.66 nM |
| CC(=O)N1C[C@@H]2C[C@H]1CN2c1cc2c(N[C@H](C)c3cccc(C(F)(F)C(C)(C)O)c3F)nc(C)nc2nc1C [Example 64, 1-{(1 S,4S)-5-[4-({(1R)-1-[3-(1,1-difluoro-2-hydroxy-2-methylpropyl)-2-fluorophenyl]ethyl}amino)-2,7-dimethylpyrido[2,3-d]pyrimidin-6-yl]-2,5-diazabicyclo[2.2.1]heptan-2-yl}ethan-1-one] | 4.35 nM |
| CC(=O)N1CC=C(c2cc3c(N[C@H](C)c4cccc(C(F)(F)C(C)(C)O)c4F)nc(C)nc3nc2C)CC1 [Example 65, 1-{4-[4-({(1R)-1-[3-(1,1-difluoro-2-hydroxy-2-methylpropyl)-2-fluorophenyl]ethyl}amino)-2,7-dimethylpyrido[2,3-d]pyrimidin-6-yl]-3,6-dihydropyridin-1(2H)-yl}ethan-1-one] | 5.72 nM |
| CC(=O)N1CCC(c2cc3c(N[C@H](C)c4cccc(C(F)(F)C(C)(C)O)c4F)nc(C)nc3nc2C)CC1 [Example 66, 1-{4-[4-({(1R)-1-[3-(1,1-difluoro-2-hydroxy-2-methylpropyl)-2-fluorophenyl]ethyl}amino)-2,7-dimethylpyrido[2,3-d]pyrimidin-6-yl]piperidin-1-yl}ethan-1-one] | 3.18 nM |
| CC(=O)N1CCN(c2cc3c(N[C@H](C)c4cccc(C(F)(F)C(C)(C)O)c4F)nc(C)nc3nc2C)CC1 [Example 67, 1-{4-[4-({(1R)-1-[3-(1,1-difluoro-2-hydroxy-2-methylpropyl)-2-fluorophenyl]ethyl}amino)-2,7-dimethylpyrido[2,3-d]pyrimidin-6-yl]piperazin-1-yl}ethan-1-one] | 6.23 nM |
| CC(=O)N1CCN(c2cc3c(N[C@H](C)c4cccc(C(F)(F)F)c4C)nc(C)nc3nc2C)C(=O)C1 [Example 68, 4-acetyl-1-[2,7-dimethyl-4-({(1R)-1-[2-methyl-3-(trifluoromethyl)phenyl]ethyl}amino)pyrido[2,3-d]pyrimidin-6-yl]piperazin-2-one] | 2.93 nM |
| CC(=O)N1CC2(C1)CN(c1cc3c(N[C@H](C)c4cccc(C(F)F)c4F)nc(C)nc3nc1C(F)(F)F)C2 [Example 69, 1-{6-[4-({(1R)-1-[3-(difluoromethyl)-2-fluorophenyl]ethyl}amino)-2-methyl-7-(trifluoromethyl)pyrido[2,3-d]pyrimidin-6-yl]-2,6-diazaspiro[3.3]heptan-2-yl}ethan-1-one] | 29.5 nM |
| CC(=O)N1CC2(C1)CN(c1cc3c(N[C@H](C)c4cccc(C(F)(F)C(C)(C)O)c4F)nc(C)nc3nc1C(F)(F)F)C2 [Example 70, 1-{6-[4-({(1R)-1-[3-(1,1-difluoro-2-hydroxy-2-methylpropyl)-2-fluorophenyl]ethyl}amino)-2-methyl-7-(trifluoromethyl)pyrido[2,3-d]pyrimidin-6-yl]-2,6-diazaspiro[3.3]heptan-2-yl}ethan-1-one] | 5.47 nM |
